Among the data in patent publication US9512107B2, “Therapeutically active compositions and their methods of use” (Agios Pharmaceuticals, Inc., priority 2012, dated 2016) are IC50 values, retold here.

Substitutions are numbered along the chain they refer to.

Experiment [1] deals with T1, IDH2 R172K (Homo sapiens, UniProt P48735, R172K).
T1 sequence (P48735 40-452 R172K): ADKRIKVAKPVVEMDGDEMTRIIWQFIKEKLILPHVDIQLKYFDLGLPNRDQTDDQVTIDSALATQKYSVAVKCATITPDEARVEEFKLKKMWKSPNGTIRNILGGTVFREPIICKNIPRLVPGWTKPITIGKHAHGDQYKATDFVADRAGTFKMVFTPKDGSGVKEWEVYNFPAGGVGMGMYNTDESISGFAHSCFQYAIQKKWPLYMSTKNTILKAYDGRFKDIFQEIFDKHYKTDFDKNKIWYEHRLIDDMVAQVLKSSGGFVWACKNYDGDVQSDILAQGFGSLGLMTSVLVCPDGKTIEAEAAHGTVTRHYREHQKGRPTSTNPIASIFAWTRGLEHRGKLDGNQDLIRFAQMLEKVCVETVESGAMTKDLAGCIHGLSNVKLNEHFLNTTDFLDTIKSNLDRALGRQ
Description: IDH2 R172K enzymatic assay (NADPH cofactor depletion, diaphorase/resazurin readout). In kind it is biochemical. The settings on record: read-out: Enz R172K. A digest of the protocol: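 Residual NADPH is read out as resorufin fluorescence after quenching with 36 μg/ml diaphorase and 60 μM resazurin in stop mix. The stop follows a 1 h room-temperature reaction started by a substrate mix of NADPH (50 μM) and α-KG (6.3 mM), with compound preincubated with enzyme for 1 h beforehand.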

The target of experiment [2] is T2, IDH2 R140Q (Homo sapiens, UniProt P48735, R140Q).
T2 sequence (P48735 40-452 R140Q): T1 sequence (P48735 40-452 R172K) with R101Q, K133R
Put plainly: IDH2 R140Q enzymatic assay (cofactor depletion, similar format). In kind it is biochemical. The note with it: read-out: Enz R140Q.

Experiment [3] concerns U87MG pLVX-IDH2 R140Q-neo cells. Put plainly: U87MG pLVX-IDH2 R140Q-neo cell based assay, 2-HG in media by LC-MS at 48 hours. The note with it: Homo sapiens, U-87 MG. A digest of the protocol: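 2-HG secreted into the medium was measured by LC-MS after 48 h of compound treatment (0.2% DMSO final) of U87MG pLVX-IDH2 R140Q-neo cells in DMEM/10% FBS. The same wells were assayed at 72 h by CellTiter-Glo luminescence for effects on growth.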

With `CCCCNc1nc(Nc2ccncc2)nc(-c2ccccc2)n1` [Compound 211, N^2-butyl-6-phenyl-N^4-(pyridin-4-yl)-1,3,5-triazine-2,4-diamine], the IC50 in experiment [1] is 100 to 1000 nM; in experiment [2], less than 100 nM; in experiment [3], 100 to 1000 nM.
For `CC(C)CCNc1nc(Nc2ccncc2)nc(-c2ccccc2)n1` [Compound 212, N^2-isopentyl-6-phenyl-N^4-(pyridin-4-yl)-1,3,5-triazine-2,4-diamine], the IC50 in experiment [1] is 100 to 1000 nM; in experiment [2], less than 100 nM; in experiment [3], less than 100 nM.
As for `CC(C)C(C)Nc1nc(Nc2ccncc2)nc(-c2ccccc2)n1` (stereo not drawn) [Compound 213, N^2-(3-methylbutan-2-yl)-6-phenyl-N^4-(pyridin-4-yl)-1,3,5-triazine-2,4-diamine], the IC50 is 100 to 1000 nM in experiment [1], less than 100 nM in experiment [2] and less than 100 nM in experiment [3].
For `CC(C)Nc1nc(Nc2ccccc2)nc(-c2ccccn2)n1` [Compound 214, N-Isopropyl-N′-phenyl-6-pyridin-2-yl-[1,3,5]triazine-2,4-diamine], the figures for the IC50 in experiment [1], in experiment [2] and in experiment [3] were 100 to 1000 nM, less than 100 nM and 100 to 1000 nM, respectively.
On to `FC(F)(F)CNc1nc(Nc2ccncc2)nc(-c2ccccc2)n1` [Compound 215, 6-phenyl-N^2-(pyridin-4-yl)-N^4-(2,2,2-trifluoroethyl)-1,3,5-triazine-2,4-diamine], for which the IC50 is 1000 to 10000 nM in experiment [1], less than 100 nM in experiment [2] and 100 to 1000 nM in experiment [3].
The matching figures for `c1ccc(-c2nc(NCC3CC3)nc(Nc3ccncc3)n2)cc1` [Compound 216, N^2-(cyclopropylmethyl)-6-phenyl-N^4-(pyridin-4-yl)-1,3,5-triazine-2,4-diamine]: 100 to 1000 nM, less than 100 nM and 100 to 1000 nM.
On to `CC1(Nc2nc(Nc3ccncc3)nc(-c3ccccc3)n2)CC1` [Compound 218, N^2-(1-methylcyclopropyl)-6-phenyl-N^4-(pyridin-4-yl)-1,3,5-triazine-2,4-diamine], for which the IC50 in experiment [1] was 1000 to 10000 nM; in experiment [2], less than 100 nM; in experiment [3], 100 to 1000 nM.
For the compound `CC1CC1Nc1nc(Nc2ccncc2)nc(-c2ccccc2)n1` (stereo not drawn) [Compound 219, N^2-(2-methylcyclopropyl)-6-phenyl-N^4-(pyridin-4-yl)-1,3,5-triazine-2,4-diamine], the IC50 in experiment [1] is 100 to 1000 nM; in experiment [2], less than 100 nM; in experiment [3], less than 100 nM.
On to `CCC(C)CNc1nc(Nc2ccncc2)nc(-c2ccccc2)n1` (stereo not drawn) [Compound 220, N^2-(2-methylbutyl)-6-phenyl-N^4-(pyridin-4-yl)-1,3,5-triazine-2,4-diamine], for which the IC50 in experiment [1] is 100 to 1000 nM; in experiment [2] it was less than 100 nM; in experiment [3] it was less than 100 nM.
For `CC1(CNc2nc(Nc3ccncc3)nc(-c3ccccc3)n2)CCCO1` (stereo not drawn) [Compound 221, N^2-((2-methyltetrahydrofuran-2-yl)methyl)-6-phenyl-N^4-(pyridin-4-yl)-1,3,5-triazine-2,4-diamine], the figures for the IC50 in experiment [1], in experiment [2] and in experiment [3] were 1000 to 10000 nM, 100 to 1000 nM and 100 to 1000 nM, respectively.
Turning to `CC(C)Nc1nc(Nc2ccnc(F)c2)nc(-c2ccccc2)n1` [Compound 223, N^2-(2-fluoropyridin-4-yl)-N^4-isopropyl-6-phenyl-1,3,5-triazine-2,4-diamine], the IC50 in experiment [1], in experiment [2] and in experiment [3] was less than 100 nM throughout.
`CCNc1cc(Nc2nc(NC(C)C)nc(-c3ccccc3)n2)ccn1` [Compound 224, N^2-(2-(ethylamino)pyridin-4-yl)-N^4-isopropyl-6-phenyl-1,3,5-triazine-2,4-diamine]: the IC50 in experiment [1] was 100 to 1000 nM; in experiment [2], less than 100 nM; in experiment [3], 100 to 1000 nM.
As to `COCCNc1nc(Nc2ccccc2)nc(-c2ccccc2)n1` [Compound 225, N^2-(2-methoxyethyl)-N^4,6-diphenyl-1,3,5-triazine-2,4-diamine], the results for the IC50 in experiment [1], in experiment [2] and in experiment [3] were 1000 to 10000 nM, less than 100 nM and 100 to 1000 nM, respectively.
For `CC(C)Nc1nc(Nc2ccncc2)nc(-c2ccccc2Cl)n1` [Compound 226, 6-(2-chlorophenyl)-N^2-isopropyl-N^4-(pyridin-4-yl)-1,3,5-triazine-2,4-diamine], in that order: 100 to 1000 nM, less than 100 nM and 100 to 1000 nM.
On to `CC(C)Nc1nc(Nc2ccncc2)nc(-c2ccccc2F)n1` [Compound 227, 6-(2-fluorophenyl)-N^2-isopropyl-N^4-(pyridin-4-yl)-1,3,5-triazine-2,4-diamine], for which the results for the IC50 in experiment [1], in experiment [2] and in experiment [3] were 100 to 1000 nM, less than 100 nM and less than 100 nM, respectively.
As to `CC(C)Nc1nc(Nc2ccccc2)nc(-c2cc(Cl)ccn2)n1` [Compound 228, 6-(4-chloropyridin-2-yl)-N^2-isopropyl-N^4-phenyl-1,3,5-triazine-2,4-diamine], the IC50 in experiment [1] is 100 to 1000 nM; in experiment [2] it was less than 100 nM; in experiment [3], 100 to 1000 nM.
As to `CC(C)Nc1nc(Nc2ccccc2)nc(-c2cccc(Cl)n2)n1` [Compound 229, 6-(6-chloropyridin-2-yl)-N^2-isopropyl-N^4-phenyl-1,3,5-triazine-2,4-diamine], the IC50 in experiment [1], in experiment [2] and in experiment [3] was less than 100 nM in each case.
With `CC(C)Nc1nc(Nc2ccccc2)nc(-c2ncccc2Cl)n1` [Compound 230, 6-(3-chloropyridin-2-yl)-N^2-isopropyl-N^4-phenyl-1,3,5-triazine-2,4-diamine], the IC50 in experiment [1], in experiment [2] and in experiment [3] was 100 to 1000 nM in each case.
With `O=C(Nc1nc(Nc2ccccc2)nc(-c2ccccc2)n1)OCC1CC1` [Compound 232, cyclopropylmethyl 4-phenyl-6-(phenylamino)-1,3,5-triazin-2-ylcarbamate], the results for the IC50 in experiment [1], in experiment [2] and in experiment [3] were 100 to 1000 nM, less than 100 nM and 100 to 1000 nM, respectively.
Take `O=C(Nc1nc(Nc2ccccc2)nc(-c2ccccc2)n1)C1CC1` [Compound 233, N-(4-phenyl-6-(phenylamino)-1,3,5-triazin-2-yl)cyclopropanecarboxamide]: the IC50 was 100 to 1000 nM in experiment [1], less than 100 nM in experiment [2] and less than 100 nM in experiment [3].
As to `c1ccc(-c2nc(Nc3ccncc3)nc(NC3CCOC3)n2)cc1` (stereo not drawn) [Compound 235, 6-phenyl-N^2-(pyridin-4-yl)-N^4-(tetrahydrofuran-3-yl)-1,3,5-triazine-2,4-diamine], the results for the IC50 in experiment [1], in experiment [2] and in experiment [3] were 1000 to 10000 nM, 100 to 1000 nM and 100 to 1000 nM, respectively.
In the case of `c1ccc(-c2nc(Nc3ccncc3)nc(NC3COC3)n2)cc1` [Compound 236, N^2-(oxetan-3-yl)-6-phenyl-N^4-(pyridin-4-yl)-1,3,5-triazine-2,4-diamine], the results for the IC50 in experiment [1], in experiment [2] and in experiment [3] were 1000 to 10000 nM, 100 to 1000 nM and 100 to 1000 nM, respectively.
Consider `c1ccc(Nc2nc(NCC3CCO3)nc(-c3ccccc3)n2)cc1` (stereo not drawn) [Compound 237, N^2-(oxetan-2-ylmethyl)-N^4,6-diphenyl-1,3,5-triazine-2,4-diamine], for which the IC50 in experiment [1] lay within 1000 to 10000 nM; in experiment [2], 100 to 1000 nM; in experiment [3] it was 100 to 1000 nM.
On to `OCCNc1nc(Nc2ccccc2)nc(-c2ccccc2)n1` [Compound 238, 2-(4-phenyl-6-(phenylamino)-1,3,5-triazin-2-ylamino)ethanol], for which the IC50 in experiment [1] was 1000 to 10000 nM; in experiment [2], 100 to 1000 nM; in experiment [3], 100 to 1000 nM.
For the compound `CC(C)(CO)CNc1nc(Nc2ccccc2)nc(-c2ccccc2)n1` [Compound 239, 2,2-dimethyl-3-(4-phenyl-6-(phenylamino)-1,3,5-triazin-2-ylamino)propan-1-ol], the IC50 in experiment [1] is 100 to 1000 nM; in experiment [2], less than 100 nM; in experiment [3], less than 100 nM.
With `CC(O)CNc1nc(Nc2ccccc2)nc(-c2ccccc2)n1` (stereo not drawn) [Compound 240, 1-(4-phenyl-6-(phenylamino)-1,3,5-triazin-2-ylamino)propan-2-ol], the values for the IC50 in experiment [1], in experiment [2] and in experiment [3] were 1000 to 10000 nM, less than 100 nM and 100 to 1000 nM, respectively.
In the case of `CC(CO)Nc1nc(Nc2ccccc2)nc(-c2ccccc2)n1` (stereo not drawn) [Compound 241, 2-(4-phenyl-6-(phenylamino)-1,3,5-triazin-2-ylamino)propan-1-ol], the IC50 in experiment [1] is 1000 to 10000 nM; in experiment [2] it was less than 100 nM; in experiment [3] it was 100 to 1000 nM.
